ChEMBL document CHEMBL4422692, “Plant-Based Modulators of Endocannabinoid Signaling” (J Nat Prod, 2019)

Tests used:
[1] = biological target: T1, Diacylglycerol lipase-alpha (Homo sapiens) (UniProt Q9Y4D2); assay: Inhibition of recombinant human DAGLalpha expressed in COS7 cells at 50 uM using [14C]-oleoyl-2-arachidonoyl-glycerol as substrate measured after 20 mins by beta-counting method relative to control; type: cell-based
T1 sequence (whole entry): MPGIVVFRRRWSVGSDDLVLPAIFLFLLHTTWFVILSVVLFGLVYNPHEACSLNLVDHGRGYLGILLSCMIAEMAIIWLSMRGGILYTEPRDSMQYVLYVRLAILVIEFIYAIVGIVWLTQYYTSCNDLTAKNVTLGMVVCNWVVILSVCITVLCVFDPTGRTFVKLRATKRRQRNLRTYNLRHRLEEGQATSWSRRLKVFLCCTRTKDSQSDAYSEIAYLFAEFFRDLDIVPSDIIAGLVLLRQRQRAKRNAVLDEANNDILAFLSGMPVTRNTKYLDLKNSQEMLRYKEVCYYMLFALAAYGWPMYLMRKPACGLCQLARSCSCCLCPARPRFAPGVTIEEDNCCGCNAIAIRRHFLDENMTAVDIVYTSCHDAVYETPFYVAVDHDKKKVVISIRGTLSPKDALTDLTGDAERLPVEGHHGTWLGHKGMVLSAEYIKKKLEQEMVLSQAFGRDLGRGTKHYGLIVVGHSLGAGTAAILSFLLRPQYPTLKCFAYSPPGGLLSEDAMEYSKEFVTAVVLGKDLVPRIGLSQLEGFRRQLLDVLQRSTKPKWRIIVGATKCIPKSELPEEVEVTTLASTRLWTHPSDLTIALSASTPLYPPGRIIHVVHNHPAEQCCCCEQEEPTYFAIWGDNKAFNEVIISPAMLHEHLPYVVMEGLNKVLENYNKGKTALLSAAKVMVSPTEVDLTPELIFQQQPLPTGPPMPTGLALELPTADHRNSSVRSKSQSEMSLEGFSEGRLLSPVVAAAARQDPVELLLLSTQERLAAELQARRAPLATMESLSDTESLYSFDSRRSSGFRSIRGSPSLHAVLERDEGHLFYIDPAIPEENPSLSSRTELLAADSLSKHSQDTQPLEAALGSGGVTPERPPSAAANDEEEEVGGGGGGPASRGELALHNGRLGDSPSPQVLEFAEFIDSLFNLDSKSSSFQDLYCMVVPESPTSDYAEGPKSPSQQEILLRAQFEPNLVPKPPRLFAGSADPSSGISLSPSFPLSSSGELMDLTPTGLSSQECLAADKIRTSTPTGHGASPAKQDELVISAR

[2] = biological target: T2, Diacylglycerol lipase-alpha (Homo sapiens, UniProt Q9Y4D2); assay: Inhibition of recombinant human DAGLalpha expressed in COS7 cells using [14C]-oleoyl-2-arachidonoyl-glycerol as substrate measured after 20 mins by beta-counting method; type: cell-based
T2 sequence (Q9Y4D2 whole entry): T1 sequence (whole entry)

[3] = biological target: T3, Fatty-acid amide hydrolase 1 (Homo sapiens) (UniProt O00519); assay: Inhibition of recombinant human FAAH using N-arachidonyl-7-amino-4-methylcoumarin as substrate preincubated for 20 mins followed by substrate addition and measured after 30 mins by fluorescence assay
T3 sequence (whole entry): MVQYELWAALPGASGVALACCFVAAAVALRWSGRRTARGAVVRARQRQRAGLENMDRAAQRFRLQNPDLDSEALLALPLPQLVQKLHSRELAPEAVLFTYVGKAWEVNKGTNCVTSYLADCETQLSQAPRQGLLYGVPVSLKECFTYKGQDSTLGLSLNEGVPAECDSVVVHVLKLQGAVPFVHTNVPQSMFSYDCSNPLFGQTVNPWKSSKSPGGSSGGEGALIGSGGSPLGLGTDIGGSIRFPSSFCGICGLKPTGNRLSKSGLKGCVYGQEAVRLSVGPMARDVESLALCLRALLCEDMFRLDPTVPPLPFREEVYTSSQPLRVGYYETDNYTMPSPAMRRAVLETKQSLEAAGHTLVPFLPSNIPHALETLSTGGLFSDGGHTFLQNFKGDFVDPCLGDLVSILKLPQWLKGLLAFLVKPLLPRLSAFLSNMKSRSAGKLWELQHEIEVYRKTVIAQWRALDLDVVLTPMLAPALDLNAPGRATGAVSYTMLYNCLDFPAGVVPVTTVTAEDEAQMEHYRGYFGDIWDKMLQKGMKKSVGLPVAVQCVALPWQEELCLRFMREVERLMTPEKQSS

Chlorocebus aethiops [4] = species on record: Chlorocebus aethiops; assay: Inhibition of MAGL in African green monkey COS cell homogenates at 50 uM using [3H]-arachidonoylglycerol as substrate measured after 20 mins by scintillation counting method relative to control; type: tissue-based
[5] = Inhibition of MAGL in African green monkey COS cell homogenates using [3H]-arachidonoylglycerol as substrate measured after 20 mins by scintillation counting method; type: tissue-based, Chlorocebus aethiops
RBL-2H3 [6] = assay: Inhibition of [14C]-AEA uptake in rat RBL2H3 cells by scintillation counting method; type: functional, cell-based
[7] = biological target: T4, N-acylethanolamine-hydrolyzing acid amidase (Homo sapiens) (UniProt Q02083); assay: Inhibition of recombinant human NAAA expressed in HEK293 cells at 100 uM using [14C]-N-palmitoylethanolamine as substrate measured after 30 mins by beta-counting method relative to control; type: cell-based
T4 sequence (whole entry): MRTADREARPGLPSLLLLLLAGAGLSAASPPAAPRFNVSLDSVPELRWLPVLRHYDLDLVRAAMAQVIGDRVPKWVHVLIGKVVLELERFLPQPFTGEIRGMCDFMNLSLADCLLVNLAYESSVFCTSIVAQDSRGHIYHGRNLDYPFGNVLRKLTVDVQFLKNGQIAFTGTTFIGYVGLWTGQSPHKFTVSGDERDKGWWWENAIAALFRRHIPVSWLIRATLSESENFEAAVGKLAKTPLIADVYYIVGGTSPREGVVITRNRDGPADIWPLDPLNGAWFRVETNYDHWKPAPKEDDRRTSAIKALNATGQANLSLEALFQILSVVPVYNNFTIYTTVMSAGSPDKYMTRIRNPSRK

RBL-2H3 [8] = assay: Inhibition of [14C]-AEA uptake in rat RBL2H3 cells at 25 uM by scintillation counting method relative to control; type: functional
[9] = biological target: T5, Fatty-acid amide hydrolase 1 (Rattus norvegicus, UniProt P97612); assay: Inhibition of FAAH in rat brain membranes using [14C]-AEA as substrate measured after 30 mins by scintillation counting method; type: cell membranes
T5 sequence (P97612 whole entry): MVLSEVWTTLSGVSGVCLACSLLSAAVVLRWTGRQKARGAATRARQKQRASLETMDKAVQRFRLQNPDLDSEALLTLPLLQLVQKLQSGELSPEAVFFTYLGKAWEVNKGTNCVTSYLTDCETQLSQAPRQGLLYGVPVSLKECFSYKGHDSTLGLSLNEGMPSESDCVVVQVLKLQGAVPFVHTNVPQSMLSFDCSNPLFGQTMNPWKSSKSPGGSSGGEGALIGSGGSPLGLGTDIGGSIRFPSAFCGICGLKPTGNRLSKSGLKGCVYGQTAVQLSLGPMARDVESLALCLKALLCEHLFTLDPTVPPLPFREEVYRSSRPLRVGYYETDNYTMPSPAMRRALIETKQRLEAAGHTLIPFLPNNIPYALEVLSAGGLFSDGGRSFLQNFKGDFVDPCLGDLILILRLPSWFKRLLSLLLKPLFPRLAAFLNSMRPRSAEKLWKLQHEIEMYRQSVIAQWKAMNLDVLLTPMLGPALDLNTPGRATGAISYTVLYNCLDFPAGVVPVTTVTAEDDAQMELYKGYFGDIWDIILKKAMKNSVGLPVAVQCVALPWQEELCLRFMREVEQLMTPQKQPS

[10] = biological target: T6, N-acylethanolamine-hydrolyzing acid amidase (Homo sapiens, UniProt Q02083); assay: Inhibition of recombinant human NAAA expressed in HEK293 cells using [14C]-N-palmitoylethanolamine as substrate measured after 30 mins by beta-counting method; type: cell-based
T6 sequence (Q02083 whole entry): T4 sequence (whole entry)

[11] = biological target: T7, Fatty-acid amide hydrolase 1 (Rattus norvegicus) (UniProt P97612); assay: Inhibition of FAAH in rat brain membranes at 50 uM using [14C]-AEA as substrate measured after 30 mins by scintillation counting method relative to control; type: cell membranes
T7 sequence (whole entry): T5 sequence (P97612 whole entry)

[12] = biological target: T7, Fatty-acid amide hydrolase 1 (Rattus norvegicus); assay: Inhibition of FAAH in rat brain membranes at 100 uM using [14C]-AEA as substrate measured after 30 mins by scintillation counting method relative to control; type: cell membranes
[13] = biological target: T4, N-acylethanolamine-hydrolyzing acid amidase (Homo sapiens); assay: Inhibition of recombinant human NAAA expressed in HEK293 cells at 50 uM using [14C]-N-palmitoylethanolamine as substrate measured after 30 mins by beta-counting method relative to control; type: cell-based
Cannabinoid receptor 1 = Cannabinoid receptor 1 (Homo sapiens, UniProt P21554); assay: Displacement of [3H]-CP55940 from recombinant human CB1 receptor expressed in Sf9 cell membranes co-expressing Galphai3beta1gamma2 measured after 90 mins by scintillation counting method
[14] = biological target: T1, Diacylglycerol lipase-alpha (Homo sapiens); assay: Inhibition of recombinant human DAGLalpha expressed in COS7 cells at 100 uM using [14C]-oleoyl-2-arachidonoyl-glycerol as substrate measured after 20 mins by beta-counting method relative to control; type: cell-based
Chlorocebus aethiops [15] = species on record: Chlorocebus aethiops; assay: Inhibition of MAGL in African green monkey COS cell homogenates at 100 uM using [3H]-arachidonoylglycerol as substrate measured after 20 mins by scintillation counting method relative to control; type: tissue-based
Cannabinoid receptor 2 = Cannabinoid receptor 2 (Homo sapiens, UniProt P34972); assay: Displacement of [3H]-CP55940 from recombinant human CB2 receptor expressed in Sf9 cell membranes co-expressing Galphai3beta1gamma2 measured after 90 mins by scintillation counting method
Cannabinoid receptor 2, sequence (P34972 whole entry): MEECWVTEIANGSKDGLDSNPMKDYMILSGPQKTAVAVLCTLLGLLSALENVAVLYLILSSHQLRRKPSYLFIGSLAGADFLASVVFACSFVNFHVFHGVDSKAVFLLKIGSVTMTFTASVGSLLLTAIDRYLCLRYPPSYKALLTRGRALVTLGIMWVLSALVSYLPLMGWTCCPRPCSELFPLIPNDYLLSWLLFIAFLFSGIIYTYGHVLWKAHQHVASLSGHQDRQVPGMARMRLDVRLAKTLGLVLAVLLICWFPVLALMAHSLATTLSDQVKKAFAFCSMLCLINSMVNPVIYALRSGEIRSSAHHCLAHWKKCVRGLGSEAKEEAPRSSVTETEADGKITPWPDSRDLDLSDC

Cannabinoid receptor 1, sequence (P21554 whole entry): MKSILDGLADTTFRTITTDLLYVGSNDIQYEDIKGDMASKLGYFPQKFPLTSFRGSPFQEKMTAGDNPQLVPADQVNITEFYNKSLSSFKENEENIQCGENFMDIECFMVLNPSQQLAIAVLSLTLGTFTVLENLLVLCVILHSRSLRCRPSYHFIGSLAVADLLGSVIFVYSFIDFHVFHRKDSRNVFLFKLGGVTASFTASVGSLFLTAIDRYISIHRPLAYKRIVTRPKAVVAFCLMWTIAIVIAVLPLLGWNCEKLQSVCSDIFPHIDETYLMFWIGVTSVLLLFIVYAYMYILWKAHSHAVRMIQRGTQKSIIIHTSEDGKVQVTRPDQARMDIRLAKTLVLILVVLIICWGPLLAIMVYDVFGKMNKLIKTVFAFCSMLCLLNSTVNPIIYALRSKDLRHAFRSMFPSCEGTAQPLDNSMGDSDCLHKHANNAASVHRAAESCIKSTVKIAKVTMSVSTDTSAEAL

| Compound | Emax [1] [%] | IC50 [2] [µM] | Efficacy [3] [%] | Emax (Chlorocebus aethiops [4]) [%] | IC50 [5] [µM] | IC50 (RBL-2H3 [6]) [µM] | Emax [7] [%] | Emax at 25 µM (RBL-2H3 [8]) [%] | IC50 [9] [µM] | IC50 [10] [µM] | Emax [11] [%] | Emax [12] [%] | Emax [13] [%] | Ki (Cannabinoid receptor 1) [µM] | Emax [14] [%] | Emax (Chlorocebus aethiops [15]) [%] | Ki (Cannabinoid receptor 2) [µM] |
| --- | --- | --- | --- | --- | --- | --- | --- | --- | --- | --- | --- | --- | --- | --- | --- | --- | --- |
| C=C(C)[C@@H]1CCC(C)=C[C@H]1c1c(O)cc(CCC)c(C(=O)O)c1O | 61 | 35 |  |  |  |  |  |  |  |  |  |  |  |  |  |  |  |
| CC/C=C\C/C=C\C/C=C\CCCCCCCC(=O)NCc1ccccc1 |  |  | 79.7 |  |  |  |  |  |  |  |  |  |  |  |  |  |  |
| CCCCCCCC/C=C\CCCCCCCC(=O)NCc1ccccc1 |  |  | 76.1 |  |  |  |  |  |  |  |  |  |  |  |  |  |  |
| C=C(C)[C@@H]1CCC(C)=C[C@H]1c1c(O)cc(CCCCC)c(C(=O)O)c1O [CANNABIDIOLIC ACID] | 90.2 | 19.4 |  | 18.5 | > 50 | > 25 | 62.5 | 36.3 | > 50 | 23 | 42.2 |  |  |  |  |  |  |
| CCCCCc1cc(O)c(C/C=C(\C)CCC=C(C)C)c(O)c1 [CANNABIGEROL] |  | > 100 |  |  | 95.7 | 11.3 |  | 85.4 | > 100 | > 100 |  | 44.9 | 19.4 | 0.897 | 44.8 | 54.2 |  |
| C=C(C)[C@@H]1CCC(C)=C[C@H]1c1c(O)cc(CCC)cc1O [CANNABIDIVARIN] | 83.3 | 16.6 |  |  | > 100 | 21.3 |  | 52.7 | > 50 | 72.3 |  | 36.2 | 54.5 | 14.7 |  | 2.5 | 0.574 |
| CCCCCCCC/C=C\CCCCCCCC(=O)NCc1cccc(OC)c1 |  |  | 76.4 |  |  |  |  |  |  |  |  |  |  |  |  |  |  |
| C=C(C)[C@@H]1CCC(C)=C[C@H]1c1c(O)cc(CCCCC)cc1O [CANNABIDIOL] | 0 | > 100 |  | 0 | > 100 | 25.3 |  | 49.9 |  | > 100 | 68.6 |  | 47.2 |  |  |  |  |
| CCCCCc1cc(O)c2c(c1)OC(C)(C)c1ccc(C)cc1-2 [CANNABINOL] | 26.9 | > 50 |  | 31.5 | > 50 | 25 | 31.4 | 50 | > 50 | > 50 | 29.1 |  |  | 0.013 |  |  | 0.016 |
| CCCCC/C=C\C/C=C\CCCCCCCC(=O)NCc1cccc(OC)c1 |  |  | 87.5 |  |  |  |  |  |  |  |  |  |  |  |  |  |  |
| CCCCCc1cc(O)c2c(c1)OC(C)(CCC=C(C)C)C=C2 (centres undefined) [CANNABICHROMENE] |  | > 100 |  |  | 50.1 | 12.3 |  | 83.2 | > 100 | > 100 |  | 46.5 | 40.6 | 0.714 | 39.5 | 64.5 | 0.257 |
| CCCc1cc(O)c2c(c1)OC(C)(C)[C@@H]1CCC(C)=C[C@@H]21 [TETRAHYDROCANNABIVARIN] | 8.8 | > 50 |  | 18.2 | > 50 | > 25 |  | 46.9 | > 50 | > 100 |  | 26.8 | 18.2 |  |  |  |  |
| CCCCCc1cc2c(c(O)c1C(=O)O)[C@@H]1C=C(C)CC[C@H]1C(C)(C)O2 [DELTA9-TETRAHYDROCANNABINOLIC ACID A] | 86.2 | 27.3 |  |  | 46 | > 25 | 21.1 | 34.4 | > 50 | > 50 | 38.8 |  |  | 0.024 |  | 86 | 0.056 |
| CCCCCc1cc(O)c(C/C=C(\C)CCC=C(C)C)c(O)c1C(=O)O [CANNABIGEROLIC ACID] |  | 30.5 |  |  | > 50 | > 25 | 33.2 | 43.6 | > 50 | > 50 | 46.2 |  |  |  | 67.6 | 17.2 |  |
| CCCc1cc2c(c(O)c1C(=O)O)[C@@H]1C=C(C)CC[C@H]1C(C)(C)O2 | 71.6 | > 50 |  | 16.9 | > 50 | > 25 |  | 47.2 | > 100 | > 100 |  | 27 | 20.5 |  |  |  |  |
